This note sets out measurements from ChEMBL document CHEMBL6078702, “Hypoxia-selective prodrug restrains tumor cells through triggering mitophagy and inducing apoptosis” (Eur J Med Chem, 2025).

Active and inactive are the calls of the source. No cut-off for these calls is given here. Some results are limits rather than exact numbers.

Data set [1] deals with HeLa. Description: Cytotoxicity against human HeLa cells under normoxia condition incubated for 48 hrs by MTT assay. The class given is functional, cell-based.
Data set [2] concerns HepG2. Description: Cytotoxicity against human HepG2 cells under normoxia condition incubated for 48 hrs by MTT assay. The class given is functional, cell-based. The note with it: HepG2, 48 h.
In data set [3] the test system is HeLa. Put plainly: Cytotoxicity against human HeLa cells under hypoxic condition incubated for 48 hrs by MTT assay. It counts as functional, cell-based.
Data set [4] concerns HepG2. Put plainly: Cytotoxicity against human HepG2 cells under hypoxic condition incubated for 48 hrs by MTT assay. The note with it: HepG2, 48 h. The class given is functional, cell-based.
Data set [5] concerns HeLa. Description: Induction of morphological damage in human HeLa cells under hypoxic condition by Hoechst 33342 staining based analysis. The class given is functional, cell-based.
The test system of data set [6] is HeLa. Put plainly: Induction of morphological damage in human HeLa cells under normoxia condition by Hoechst 33342 staining based analysis. It counts as functional, cell-based.
Data set [7] has as its system HeLa. Put plainly: Induction of mitochondrial membrane potential dissipation in human HeLa cells under hypoxic condition assessed as accumulation of green fluorescence at 5 uM incubated for 24 hrs by JC-1 staining based CLSM analysis. It counts as functional, cell-based.
In data set [8] the test system is HeLa. Description: Induction of mitochondrial membrane potential dissipation in human HeLa cells under hypoxic condition at 5 uM incubated for 24 hrs by flow cytometry. It counts as functional, cell-based.
Data set [9] deals with HeLa. Put plainly: Induction of morphological change in mitochondria in human HeLa cells under hypoxic condition assessed as formation of multi-lamellar globules at 5 uM incubated for 48 hrs by TEM analysis. The class given is functional, cell-based.
The test system of data set [10] is HeLa. Description: Induction of morphological change in mitochondria in human HeLa cells under hypoxic condition assessed as onion-like circle formation of cristae folds in inner membrane at 5 uM incubated for 48 hrs by TEM analysis. It counts as functional, cell-based.
Data set [11] concerns HeLa. Put plainly: Induction of morphological change in mitochondria in human HeLa cells under hypoxic condition assessed as disappearance of cristae at 5 to 10 uM incubated for 48 hrs by TEM analysis. The class given is functional, cell-based. The note with it: dose 5-10 µM.
For data set [12], the system named is HeLa. Put plainly: Induction of morphological change in mitochondria in human HeLa cells under hypoxic condition assessed as formation of vacuoles at 5 to 10 uM incubated for 48 hrs by TEM analysis. The class given is functional, cell-based. The note with it: dose 5-10 µM.
Data set [13] deals with HeLa. Put plainly: Induction of morphological change in mitochondria in human HeLa cells under hypoxic condition assessed as increase in IMMT level at 5 uM incubated for 48 hrs by immunofluorescence based analysis. It counts as functional, cell-based.
The subject of data set [14] is HeLa. Description: Induction of mitophagy in human HeLa cells under hypoxic condition assessed as decrease in p62 level incubated for 24 hrs by Western blot analysis. It counts as functional, cell-based. The following applies: dose 1-10 µM.
Data set [15] concerns HeLa. Description: Induction of mitophagy in human HeLa cells under hypoxic condition assessed as increase in ratio of LC3-II to LC3-I levels incubated for 24 hrs by Western blot analysis. The class given is functional, cell-based. The following applies: dose 1-10 µM.
Data set [16] relates to HeLa. Description: Induction of mitophagy in human HeLa cells under hypoxic condition assessed as co-localization of mitochondria and lysosomes at 5 uM incubated for 24 hrs by CLSM analysis. It counts as functional, cell-based.
For data set [17], the system named is HeLa. Put plainly: Induction of mitophagy in human HeLa cells under hypoxic condition assessed as encapsulation of mitochondria in vacuoles at 10 uM incubated for 48 hrs by TEM analysis. The class given is functional, cell-based.
Data set [18] concerns HeLa. Description: Induction of apoptosis in human HeLa cells under hypoxic condition assessed as viable cells at 5 uM incubated for 48 hrs by Annexin V-FITC/PI staining based flow cytometry (reference value: 98.13 %). It counts as functional. The note with it: read-out: Activity.
Data set [19] concerns HeLa. Description: Induction of apoptosis in human HeLa cells under hypoxic condition assessed as early apoptotic cells at 5 uM incubated for 48 hrs by Annexin V-FITC/PI staining based flow cytometry (reference value: 0.60 %). The class given is functional.
The test system of data set [20] is HeLa. Put plainly: Induction of apoptosis in human HeLa cells under hypoxic condition assessed as late apoptotic cells at 5 uM incubated for 48 hrs by Annexin V-FITC/PI staining based flow cytometry (reference value: 0.10 %). The class given is functional.
The subject of data set [21] is HeLa. Description: Induction of apoptosis in human HeLa cells under hypoxic condition assessed as necrotic cells at 5 uM incubated for 48 hrs by Annexin V-FITC/PI staining based flow cytometry (reference value: 1.17 %). The class given is functional.
For data set [22], the system named is HeLa. Description: Induction of apoptosis in human HeLa cells under hypoxic condition assessed as increase in cleaved caspase-3 level at 1 to 10 uM incubated for 48 hrs by Western blot analysis. The class given is functional, cell-based. The following applies: dose 1-10 µM.
The test system of data set [23] is HeLa. Description: Induction of apoptosis in human HeLa cells under hypoxic condition assessed as increase in cleaved PARP-1 level at 1 to 10 uM incubated for 48 hrs by Western blot analysis. The class given is functional, cell-based. The following applies: dose 1-10 µM.
Data set [24] deals with HeLa. Description: Antitumor activity against human HeLa cells xenografted in BALB/c nude mouse assessed as tumor growth suppression at 25 to 50 mg/kg, ip qd for 14 days. It counts as functional, organism-based. The following applies: dose 25-50 mg/kg, time 14.0 day.
Data set [25] relates to HeLa. Put plainly: Antitumor activity against human HeLa cells xenografted in BALB/c nude mouse at 25 mg/kg, ip qd for 14 days relative to control. The class given is functional. The note with it: 336 h, time 14 day, read-out: TGI.
For data set [26], the system named is HeLa. Put plainly: Antitumor activity against human HeLa cells xenografted in BALB/c nude mouse at 50 mg/kg, ip qd for 14 days relative to control. It counts as functional. The following applies: 336 h, time 14 day, read-out: TGI.
The nature of data set [27]: Toxicity in BALB/c nude mouse xenografted with human HeLa cells assessed as body weight change at 25 to 50 mg/kg, ip qd for 14 days. The class given is organism-based. The note with it: in vivo, 336 h, dose 25-50 mg/kg, time 14 day.
Data set [28] can be described thus: Acute toxicity in BALB/c nude mouse xenografted with human HeLa cells assessed as damage in heart at 1000 mg/kg, ip by H and E staining based analysis. The class given is organism-based. The following applies: in vivo.
A short description of data set [29]: Acute toxicity in BALB/c nude mouse xenografted with human HeLa cells assessed as damage in liver at 1000 mg/kg, ip by H and E staining based analysis. It counts as organism-based. The note with it: in vivo.
Data set [30] is described as follows: Acute toxicity in BALB/c nude mouse xenografted with human HeLa cells assessed as damage in spleen at 1000 mg/kg, ip by H and E staining based analysis. It counts as organism-based. The following applies: in vivo.
Data set [31] can be described thus: Acute toxicity in BALB/c nude mouse xenografted with human HeLa cells assessed as damage in lung at 1000 mg/kg, ip by H and E staining based analysis. The note with it: in vivo. It counts as organism-based.
Data set [32] can be described thus: Acute toxicity in BALB/c nude mouse xenografted with human HeLa cells assessed as damage in kidney at 1000 mg/kg, ip by H and E staining based analysis. The class given is organism-based. The following applies: in vivo.
The nature of data set [33]: Toxicity in BALB/c nude mouse xenografted with human HeLa cells assessed as animal mortality at 25 to 50 mg/kg, ip qd for 14 days. The class given is organism-based. The following applies: in vivo, dose 25-50 mg/kg, time 14 day.

For `COc1ccc(/C=C/C(=O)c2ccc(OCc3cn(CCCC[P+](c4ccccc4)(c4ccccc4)c4ccccc4)nn3)c(Br)c2)cc1[N+](=O)[O-]`, the IC50 in the data set on HeLa [1] is 10.7 µM; with HepG2 [2] it was 21.6 µM; in the data set with HeLa [3] it was > 50 µM; in the data set on HepG2 [4] it was 19.3 µM.

For `COc1ccc(C(=O)/C=C/c2ccc(OC)c([N+](=O)[O-])c2)cc1F`, the IC50 in the data set on HeLa [1] was > 100 µM; in the data set with HepG2 [2] it was > 50 µM; in the data set on HeLa [3] it was > 50 µM; with HepG2 [4], 23.1 µM.

On to `COc1ccc(C(=O)/C=C/c2cccc([N+](=O)[O-])c2)cc1F`, for which the IC50 in the data set on HeLa [1] was > 50 µM; in the data set on HepG2 [2], > 50 µM; in the data set with HeLa [3], 3.3 µM; in the data set on HepG2 [4] it was 5 µM. In addition, the outcome in the data set on HeLa [5], in the data set on HeLa [7], with HeLa [8], in the data set with HeLa [9], in the data set with HeLa [10] and in the data set with HeLa [11] was Active. In addition, the outcome with HeLa [12], in the data set on HeLa [13], in the data set with HeLa [14], with HeLa [15], in the data set with HeLa [16] and in the data set with HeLa [22] was Active. The outcome in the data set on HeLa [23] and with HeLa [24] was Active. Further, in the data set on HeLa [6], the outcome was inactive. The Activity entry was “Active; Result Indicates That Mitochondria Were Removed From Cells Through Autophagosomes” in the data set on HeLa [17]; 10.21% in the data set with HeLa [19]; 63.25% with HeLa [20]; 7.74% in the data set with HeLa [21]; “Non-toxic” in data set [27]; “Non-toxic” in [28]. The Activity entry in data set [29], in data set [30], in data set [31] and in data set [32] was “Non-toxic” throughout. In addition, in the data set with HeLa [18], the viability at 5 µM came to 18.8%. Also, the inhibition in vivo at 25 mg/kg in the data set with HeLa [25] came to 30.3%. The inhibition in vivo at 50 mg/kg with HeLa [26] is 57.4%.

On to `O=C(/C=C/c1cccc([N+](=O)[O-])c1)c1ccc(OCc2cn(CCCC[P+](c3ccccc3)(c3ccccc3)c3ccccc3)nn2)c(Br)c1`, for which the IC50 with HeLa [1] is > 50 µM; in the data set on HepG2 [2] it was 12.8 µM; with HeLa [3] it was > 50 µM; in the data set with HepG2 [4], 26.5 µM.

On to `COc1ccc(C(=O)/C=C/c2ccc(OC)c([N+](=O)[O-])c2)cc1Br`, for which the concentration for half-maximal inhibition (IC50) in the data set on HeLa [1] is > 100 µM; in the data set on HepG2 [2], > 50 µM; in the data set on HeLa [3] it was 15.1 µM; with HepG2 [4] it was 15.4 µM.

Turning to `COc1ccc(C(=O)/C=C/c2cccc(N)c2)cc1F`, in data set [33], the mortality at 336 h is 50%. Also, the Activity entry in data set [29] and in [31] was “Non-toxic” each time.
